Series [1] in a line: Competitive inhibition of Escherichia coli thymidylate synthetase using 5-[3H]-dUMP as substrate after 7 mins by scintillation counting analysis.
Series [2] is described as follows: Competitive inhibition of calf thymus thymidylate synthetase using 5-[3H]-dUMP as substrate after 10 mins by scintillation counting analysis. Also noted: species or system Bos taurus.
Series [3] is described as follows: Competitive inhibition of thymidylate synthetase in mouse Ehrlich ascites tumor cells using 5-[3H]-dUMP as substrate after 7 mins by scintillation counting analysis.
The species entered for series [4] is Bos taurus. The series can be described thus: Ratio of Ki to Km for calf thymus thymidylate synthetase.
The species named for series [5] is Mus musculus. The series can be described thus: Ratio of Ki to Km for thymidylate synthetase in mouse Ehrlich ascites tumor cells.
A short description of series [6]: Selectivity ratio of Ki/Km for calf thymus thymidylate synthetase to Ki/Km for thymidylate synthetase in mouse Ehrlich ascites tumor cells.
Series [7] is filed under the species Bos taurus. Put plainly: Irreversible inactivation of calf thymus thymidylate synthetase assessed as enzyme activity using dUMP as substrate at 0.33 mM preincubated for 3 hrs in absence of cofactor tetrahydrofolate.
The species entered for series [8] is Bos taurus. The series can be described thus: Irreversible inactivation of calf thymus thymidylate synthetase assessed as enzyme activity using dUMP as substrate at 0.33 mM preincubated for 3 hrs in presence of cofactor tetrahydrofolate.
The species named for series [9] is Mus musculus. The series can be described thus: Irreversible inactivation of thymidylate synthetase in mouse Ehrlich ascites tumor cells assessed as enzyme activity using dUMP as substrate at 0.33 mM preincubated for 3 hrs in absence of cofactor tetrahydrofolate.
Series [10] is filed under the species Mus musculus. The series can be described thus: Irreversible inactivation of thymidylate synthetase in mouse Ehrlich ascites tumor cells assessed as enzyme activity using dUMP as substrate at 0.33 mM preincubated for 3 hrs in presence of cofactor tetrahydrofolate.
The nature of series [11]: Non-competitive inhibition of calf thymus thymidylate synthetase using 5-[3H]-dUMP as substrate after 10 mins by scintillation counting analysis. Also on record: species or system Bos taurus.
The nature of series [12]: Inhibition of Escherichia coli thymidylate synthetase using 5-[3H]-dUMP as substrate.
A short description of series [13]: Retardation factor of the compound. In kind it is physicochemical.

Structures are written as SMILES.

Data on 8 compounds can be found in ChEMBL document CHEMBL3272153, “Synthetic inhibitors of Escherichia coli, calf thymus, and Ehrlich ascites tumor thymidylate synthetase” (J Med Chem, 1976).

`O=c1[nH]c(=O)n([C@H]2C[C@H](O)[C@@H](COP(=O)(O)O)O2)cc1COCc1ccccc1`: the values for the Ki in [1], in series [2] and in series [3] were 25 µM, 42 µM and 9 µM, respectively. For the same compound, the figures for the Ki/Km in the series filed under Bos taurus [4] and in the series filed under Mus musculus [5] were 4.6 and 2.2, respectively. The Selectivity ratio in series [6] is 2.
`[N-]=[N+]=NCc1cn([C@H]2C[C@H](O)[C@@H](COP(=O)(O)O)O2)c(=O)[nH]c1=O`: the inhibition constant Ki came to 18 µM in series [1], 21 µM in series [2] and 5 µM in series [3]. Besides, the Activity came to 77% in the series listed under Bos taurus [7], 83% in the series filed under Bos taurus [8], 60% in the series filed under Mus musculus [9] and 87% in the series filed under Mus musculus [10]. Besides, the results for the Ki/Km in the series listed under Bos taurus [4] and in the series listed under Mus musculus [5] were 2.3 and 1.2, respectively. Further, the Selectivity ratio in [6] is 1.9.
Regarding `O=Cc1cn([C@H]2C[C@H](O)[C@@H](COP(=O)(O)O)O2)c(=O)[nH]c1=O`, the Ki stood at 0.1 µM in [1], 0.08 µM in series [3], 0.09 µM in [11] and 0.013 µM in [12]. Further, the Ki/Km in the series listed under Bos taurus [4] came out at 0.01; in the series filed under Mus musculus [5] it was 0.02. In addition, the Selectivity ratio in series [6] worked out at 0.5.
Regarding `C=CCc1cn([C@H]2C[C@H](O)[C@@H](COP(=O)(O)O)O2)c(=O)[nH]c1=O`, the Ki in series [1] is 135 µM; in [2] it was 130 µM; in series [3], 40 µM. The Ki/Km in the series listed under Bos taurus [4] came to 14; in the series filed under Mus musculus [5], 10. Moreover, in series [6], the Selectivity ratio came to 1.4. For the same compound, the Rf in [13] amounted to 0.55.
`COCc1cn([C@H]2C[C@H](O)[C@@H](COP(=O)(O)O)O2)c(=O)[nH]c1=O`: the Ki is 42 µM in series [1], 32 µM in [2] and 19 µM in series [3]. For the same compound, the Ki/Km in the series filed under Bos taurus [4] was 3.5; in the series filed under Mus musculus [5] it was 4.7. Moreover, the Selectivity ratio in series [6] was found to be 0.7.
As to `O=c1[nH]c(=O)n([C@H]2C[C@H](O)[C@@H](COP(=O)(O)O)O2)cc1CO`, the Ki in series [1] stood at 4 µM; in series [2], 4 µM; in series [3] it was 0.6 µM; in series [12] it was 10.5 µM. Besides, the Ki/Km in the series listed under Bos taurus [4] came out at 0.44; in the series filed under Mus musculus [5], 0.15. The Selectivity ratio in series [6] is 3.
For the compound `CC(=O)c1cn([C@H]2C[C@H](O)[C@@H](COP(=O)(O)O)O2)c(=O)[nH]c1=O`, the results for the Ki in [1], in series [2] and in [3] were 64 µM, 73 µM and 22 µM, respectively. Moreover, the Ki/Km in the series filed under Bos taurus [4] stood at 8.1; in the series filed under Mus musculus [5], 5.5. Moreover, the Selectivity ratio in [6] is 1.5.
As to `O=c1[nH]c(=O)n([C@H]2C[C@H](O)[C@@H](COP(=O)(O)O)O2)cc1CC1CO1` (stereo not given in full), the figures for the inhibition constant (Ki) in series [1], in series [2] and in series [3] were 25 µM, 33 µM and 14 µM, respectively. Moreover, the Activity in the series listed under Bos taurus [7] was 104%; in the series listed under Bos taurus [8], 85%; in the series filed under Mus musculus [9], 94%; in the series filed under Mus musculus [10] it was 120%. Moreover, the results for the Ki/Km in the series filed under Bos taurus [4] and in the series filed under Mus musculus [5] were 3.6 and 3.5, respectively. In series [6], the Selectivity ratio came out at 1. The Rf in [13] is 0.45.

By Ki is commonly meant a dissociation constant, usually derived from enzyme kinetics or from competition with a known ligand. A low value points to a stronger hold on the target.
